Source: ChEMBL document CHEMBL5113408, “Design, synthesis and antitumour activity of novel 5(6)-amino-benzimidazolequinones containing a fused morpholine” (Eur J Med Chem, 2022)

How the values were obtained:
Assay type in all cases: functional, cell-based
HeLa = experiment: Antiproliferative activity against human HeLa cells assessed as inhibition of cell growth by SRB assay
MCF7 = experiment: Antiproliferative activity against human MCF7 cells assessed as inhibition of cell growth by SRB assay
MGC-803 = experiment: Antiproliferative activity against human MGC-803 cells assessed as inhibition of cell growth by SRB assay
ECa-109 cell line = experiment: Antiproliferative activity against human EC109 cells assessed as inhibition of cell growth by SRB assay

SMILES | IC50 (HeLa) [µM] | IC50 (MCF7) [µM] | IC50 (MGC-803) [µM] | IC50 (ECa-109 cell line) [µM]
CCc1ccc(NC2=CC(=O)c3nc4n(c3C2=O)[C@H]2OC[C@@H](O)[C@H]2OC4)cc1 | 3.99 | 0.96 | 1.29 | 3.08
O=C1C=C(N2CCCCC2)C(=O)c2c1nc1n2[C@H]2OC[C@@H](O)[C@H]2OC1 | > 16 | > 8 | > 8 | > 8
O=C1C(N2CCOCC2)=CC(=O)c2c1nc1n2[C@H]2OC[C@@H](O)[C@H]2OC1 | > 16 | > 16 | > 4 | –
O=C1C=C(Nc2ccccc2F)C(=O)c2c1nc1n2C[C@@H]([C@H](O)CO)OC1 | 5.86 | 9.17 | 3.24 | 7.88
O=C1C=C(Nc2ccc(Br)cc2)C(=O)c2c1nc1n2C[C@@H]([C@H](O)CO)OC1 | 4.22 | 6.13 | 2.75 | 8.25
O=C1C=C(Nc2cccc(F)c2)C(=O)c2c1nc1n2[C@H]2OC[C@@H](O)[C@H]2OC1 | 6.44 | 5.5 | 2.18 | 7.03
CCOc1ccc(NC2=CC(=O)c3nc4n(c3C2=O)C[C@@H]([C@H](O)CO)OC4)cc1 | 4.12 | 11.3 | 4.31 | 9.88
COc1ccc(NC2=CC(=O)c3c(nc4n3C[C@@H]([C@H](O)CO)OC4)C2=O)cc1 | 8.19 | 11.4 | 6.76 | 10.8
O=C1C=C(Nc2ccc(Br)cc2)C(=O)c2c1nc1n2[C@H]2OC[C@@H](O)[C@H]2OC1 | 3.83 | 2.58 | 1.01 | 2.85
COc1ccccc1NC1=CC(=O)c2nc3n(c2C1=O)[C@H]1OC[C@@H](O)[C@H]1OC3 | 2.95 | > 4 | 1.63 | > 4
COc1ccccc1NC1=CC(=O)c2c(nc3n2[C@H]2OC[C@@H](O)[C@H]2OC3)C1=O | 7.46 | 6.58 | 1.67 | > 4
COc1ccc(NC2=CC(=O)c3c(nc4n3[C@H]3OC[C@@H](O)[C@H]3OC4)C2=O)cc1 | > 8 | 4.47 | 2.15 | 3.41
Cc1ccc(NC2=CC(=O)c3nc4n(c3C2=O)C[C@@H]([C@H](O)CO)OC4)cc1C | 4.5 | 6.26 | 2.59 | 6.74
CCCc1ccc(NC2=CC(=O)c3c(nc4n3[C@H]3OC[C@@H](O)[C@H]3OC4)C2=O)cc1 | 6.03 | > 4 | 1.92 | > 4
O=C1C(N2CCCCC2)=CC(=O)c2c1nc1n2[C@H]2OC[C@@H](O)[C@H]2OC1 | > 16 | > 8 | > 4 | > 8
O=C1C=C(NCc2ccccc2)C(=O)c2c1nc1n2[C@H]2OC[C@@H](O)[C@H]2OC1 | > 8 | > 8 | 2.67 | > 8
Cc1ccc(NC2=CC(=O)c3c(nc4n3[C@H]3OC[C@@H](O)[C@H]3OC4)C2=O)cc1 | 6.59 | > 4 | 1.55 | > 4
O=C1C(Nc2ccc(C(F)(F)F)cc2)=CC(=O)c2c1nc1n2C[C@@H]([C@H](O)CO)OC1 | 7.18 | 4.28 | 2.02 | 4.03
Cc1ccc(NC2=CC(=O)c3c(nc4n3[C@H]3OC[C@@H](O)[C@H]3OC4)C2=O)cc1C | 4.32 | 4.95 | 1.05 | 4.09
O=C1C=C(Nc2ccccc2)C(=O)c2c1nc1n2C[C@@H]([C@H](O)CO)OC1 | 6.06 | > 16 | 8.07 | > 16
O=C1C(N2CCCC2)=CC(=O)c2c1nc1n2[C@H]2OC[C@@H](O)[C@H]2OC1 | > 16 | > 16 | > 16 | > 16
COc1ccccc1NC1=CC(=O)c2c(nc3n2C[C@@H]([C@H](O)CO)OC3)C1=O | 8.97 | 6.81 | 4.42 | 7.64
O=C1C(Nc2ccc(Br)cc2)=CC(=O)c2c1nc1n2C[C@@H]([C@H](O)CO)OC1 | 7.89 | 5.01 | 2.78 | 3.56
COc1ccccc1NC1=CC(=O)c2nc3n(c2C1=O)C[C@@H]([C@H](O)CO)OC3 | 6.42 | > 16 | 6.61 | > 16
O=C1C=C(Nc2ccc(I)cc2)C(=O)c2c1nc1n2C[C@@H]([C@H](O)CO)OC1 | 3.61 | 7.69 | 3.25 | 5.78
O=C1C(NCc2ccccc2)=CC(=O)c2c1nc1n2[C@H]2OC[C@@H](O)[C@H]2OC1 | 11 | > 8 | 3.49 | > 8

SMILES | IC50 (HeLa) [µM] | IC50 (MCF7) [µM] | IC50 (MGC-803) [µM] | IC50 (ECa-109 cell line) [µM]
O=C1C(Nc2cccc(F)c2)=CC(=O)c2c1nc1n2C[C@@H]([C@H](O)CO)OC1 | > 16 | 5.89 | 3.04 | 6.56
CCCc1ccc(NC2=CC(=O)c3nc4n(c3C2=O)[C@H]2OC[C@@H](O)[C@H]2OC4)cc1 | 4.99 | 4.66 | 1.56 | > 4
COc1cccc(NC2=CC(=O)c3c(nc4n3[C@H]3OC[C@@H](O)[C@H]3OC4)C2=O)c1 | > 8 | 3.83 | 1.79 | 3.34
COc1cccc(NC2=CC(=O)c3nc4n(c3C2=O)C[C@@H]([C@H](O)CO)OC4)c1 | 8.41 | > 16 | 9.26 | > 16
O=C1C=C(Nc2ccc(I)cc2)C(=O)c2c1nc1n2[C@H]2OC[C@@H](O)[C@H]2OC1 | 4.07 | 2.23 | 1.4 | 2.3
CCN(CC)C1=CC(=O)c2c(nc3n2[C@H]2OC[C@@H](O)[C@H]2OC3)C1=O | > 16 | > 16 | > 16 | –
Cc1ccc(NC2=CC(=O)c3c(nc4n3C[C@@H]([C@H](O)CO)OC4)C2=O)cc1C | 10.1 | > 16 | 5.46 | > 16
O=C1C(Nc2ccccc2)=CC(=O)c2c1nc1n2[C@H]2OC[C@@H](O)[C@H]2OC1 | > 8 | > 4 | 1.83 | 3.56
O=C1C=C(N2CCCC2)C(=O)c2c1nc1n2[C@H]2OC[C@@H](O)[C@H]2OC1 | > 16 | > 16 | > 16 | > 16
O=C1C=C(Nc2ccccc2F)C(=O)c2c1nc1n2[C@H]2OC[C@@H](O)[C@H]2OC1 | 5.12 | 3.64 | 2.08 | 2.76
O=C1C(Nc2ccc(I)cc2)=CC(=O)c2c1nc1n2C[C@@H]([C@H](O)CO)OC1 | 5.51 | 5.11 | 2.46 | 3.14
O=C1C(Nc2cccc(F)c2)=CC(=O)c2c1nc1n2[C@H]2OC[C@@H](O)[C@H]2OC1 | > 8 | > 4 | 1.47 | 2.37
O=C1C(Nc2ccc(I)cc2)=CC(=O)c2c1nc1n2[C@H]2OC[C@@H](O)[C@H]2OC1 | 4.01 | 3.89 | 2.15 | 2.53
O=C1C(NC2CC2)=CC(=O)c2c1nc1n2C[C@@H]([C@H](O)CO)OC1 | > 16 | > 16 | > 16 | > 16
O=C1C(N2CCC2)=CC(=O)c2c1nc1n2[C@H]2OC[C@@H](O)[C@H]2OC1 | > 16 | > 16 | > 16 | > 16
CCOc1ccc(NC2=CC(=O)c3c(nc4n3[C@H]3OC[C@@H](O)[C@H]3OC4)C2=O)cc1 | 14.4 | > 4 | 2.09 | > 4
O=C1C=C(Nc2cccc(Cl)c2)C(=O)c2c1nc1n2C[C@@H]([C@H](O)CO)OC1 | 4.06 | 9.4 | 5.27 | 11.3
O=C1C=C(Nc2ccccc2)C(=O)c2c1nc1n2[C@H]2OC[C@@H](O)[C@H]2OC1 | 5.62 | > 4 | 1.73 | 4.97
CN(C)C1=CC(=O)c2c(nc3n2[C@H]2OC[C@@H](O)[C@H]2OC3)C1=O | > 16 | > 16 | > 16 | –
Cc1ccc(NC2=CC(=O)c3nc4n(c3C2=O)C[C@@H]([C@H](O)CO)OC4)cc1 | 3.9 | 10.6 | 4.82 | 7.98
O=C1C=C(NC2CCCC2)C(=O)c2c1nc1n2[C@H]2OC[C@@H](O)[C@H]2OC1 | > 16 | > 16 | > 8 | > 16
O=C1C=C(Nc2cccc(Cl)c2)C(=O)c2c1nc1n2[C@H]2OC[C@@H](O)[C@H]2OC1 | 6.04 | 4.72 | 1.77 | 4.69
CCOc1ccccc1NC1=CC(=O)c2nc3n(c2C1=O)[C@H]1OC[C@@H](O)[C@H]1OC3 | 6.04 | > 4 | 2.45 | 4.63
CCCc1ccc(NC2=CC(=O)c3c(nc4n3C[C@@H]([C@H](O)CO)OC4)C2=O)cc1 | 6.17 | 9.44 | 4.63 | 5.12
O=C1C(NC2CC2)=CC(=O)c2c1nc1n2[C@H]2OC[C@@H](O)[C@H]2OC1 | > 16 | > 16 | > 4 | –
O=c1[nH]cc(F)c(=O)[nH]1 [FLUOROURACIL] | 24.3 | – | 10.3 | 11.4
